For 89 molecules, melting point results are on record in a melting point compilation (Tetko et al.; mined from patent text by program, amines drawn as free bases though some values may be those of a salt).

A word on the melting point: it is the temperature of the solid-liquid transition.

Molecules are shown by their SMILES.

The molecule `COC(=O)c1cccc(N)c1CS(=O)(=O)NC(C)(C)C` came in with a melting point of 123 to 125 °C.
The molecule `CON=C(C)CC(C)(C)Cn1cnc2c(N)nc3ccccc3c21` gave a melting point of 148 to 150 °C.
`CC(=O)c1cc(Cl)ccc1Nc1ccc(O)cc1` registered a melting point of 158 to 161 °C.
The result for `CCOC(=O)c1ccc(Cn2c(C)nc3cnccc32)cc1` reads 164 to 166 °C.
Molecule `NC(=O)c1cc(NCc2ccc(F)cc2)c([N+](=O)[O-])cc1[N+](=O)[O-]` displayed a melting point of 178 to 180 °C.
For the molecule `CCCNC(=O)c1nnc(NCc2cc(Br)ccc2OCc2ccccc2)s1`, the melting point stood at 154 °C.
The result for `COC(=O)c1ccc(N2C(=O)CCC2CN=[N+]=[N-])c([N+](=O)[O-])c1` (centres undefined) reads 68 to 70 °C; that for `Cc1cccc(-c2nc(NC(=O)c3cccnc3)sc2-c2ccnc(NCc3ccccc3)c2)c1`, 220 to 222 °C.
The result for `C=CCNS(=O)(=O)c1ccc(I)cc1` reads 76 to 77 °C.
Molecule `O=[N+]([O-])c1cccc(CSc2nc3cnccc3[nH]2)c1` yielded a melting point of 208 to 210 °C.
For `O=C(C=Cc1ccc(O)cc1)NCCO`, the melting point is 149 to 151 °C.
On to `C1=C(OCc2ccccc2)CCN(Cc2nc3ccccc3[nH]2)C1`, for which the melting point lay within 170 to 172 °C.
As for `CCN1CCc2cc(Nc3ncc(Cl)c(Nc4ccccc4C(=O)NC)n3)c(OC)cc2CC1=O`, the melting point was in the range of 120 to 132 °C.
Under `CCOC(=O)c1cn(C2CC2)c2c(F)c(F)c(F)cc2c1=O` stands 167 to 168 °C.
`CCCN(Cc1cccc(-c2noc(C)n2)c1)C(=O)Nc1ccc(-c2ccccc2S(=O)(=O)NC(C)(C)C)cc1`: the melting point is 150 to 151 °C.
For `OCCc1nc(NCc2ccccn2)c2c(-c3ccccc3)csc2n1`, the melting point is 90 to 92 °C.
Under `O=C(O)c1cn2c(ccc3ccc(Cl)cc32)n1` stands 288 to 289 °C; under `Cc1cncn1Cc1ccc(N)cc1`, 124 to 125 °C; under `O=C(O)c1ccccc1Sc1c(O)c2c(Cl)cc(Cl)cc2[nH]c1=O`, more than 300 °C.
In turn, `CC(C)c1ccc(NC(=O)Oc2ccc3c(c2)CCN3)cc1` returned a melting point of 166 to 170 °C.
For `CCC(C1OC(=O)c2ccccc21)[N+](=O)[O-]` (centres undefined), the melting point is 90 to 92 °C.
The result for `Cc1cc2c(cc1[N+](=O)[O-])OCO2` reads 83 to 84 °C; that for `NS(=O)(=O)c1ccc(NC(=O)c2ccccc2SSc2ccccc2C(=O)O)cc1`, 276 to 278 °C; that for `O=S(=O)(O)c1ccc(Nc2ccnc3cc(Cl)ccc23)cc1Cl`, 280 to 285 °C.
Under `Cc1nc2cccc(OCC(C)(C)NC(=O)CC3CCOCC3)c2c(N)c1C(=O)O` stands 175 to 178 °C; under `O=C(Nc1cccc([N+](=O)[O-])c1)C(=O)N1CCC(Cc2ccccc2)CC1`, 138 to 140 °C; under `COc1cc(N2CCCN(C3CCN(CCO)CC3)CC2)ccc1Nc1ncc2ccc(-c3ccccc3OC)n2n1`, 77 to 94 °C.
The result for `Cc1cc(-c2cc(Cl)ccc2Cl)n2ncc(C#N)c2n1` reads 229 to 230 °C; that for `Nc1nc(N)nc(N2CCC3(CC2)OCCO3)n1`, 209 to 211 °C.
As to `COc1ccc(N(C)c2nccc(-c3ccncc3)n2)cc1`, the melting point was 124 to 126 °C.
Molecule `CCOC(=O)Cc1nc(-c2ccc(Cl)cc2)oc1Sc1ccccc1` came in with a melting point of 109 to 110 °C.
Consider `Clc1ccc(Nc2nc3ccccc3c3[nH]c(C4CCCC4)nc23)cc1Cl`, for which the melting point lay within 114 to 115 °C.
For the molecule `CCc1c(Oc2ncc(C(F)(F)F)cc2Cl)nn(C(=O)NC)c1C`, the melting point was in the range of 84 to 86 °C.
The result for `COC(=O)COc1ccc2ccc(O)c(C(C)=O)c2c1` reads 113 to 114 °C; that for `O=C(NCCO[N+](=O)[O-])c1cnc(-c2ccccc2)s1`, 148 to 149 °C; that for `CCCCN(C=NC1=C(C(=O)OCC)C(c2ccccc2Cl)C(C(=O)OCC)=C(C)N1)CCCC` (centres undefined), 126 °C.
Under `CC1(CCl)COC(N)=N1` (centres undefined) stands 61 to 62 °C; under `COc1ccc2c(c1)Sc1ccccc1C(=S)N2`, 239 to 241 °C; under `O=CN(O)C(CO)CS(=O)(=O)c1ccccc1Sc1ccc(Cl)cc1` (centres undefined), 148 to 150 °C.
Molecule `CCCC(O)(CCC)c1ccc(Cl)c2nc3n(c12)CCCN3c1ccc(Cl)cc1C(F)(F)F` returned a melting point of 200 to 202 °C.
Under `CCS(=O)(=O)N(Cc1cccnc1)c1ccc(Oc2ccccc2)cc1` stands 79 to 80 °C; under `O=c1c2cc(O)ccc2sc2c([N+](=O)[O-])ccc(Cl)c12`, more than 300 °C.
Under `Cc1ccc(C2CCN(CCc3c(C)[nH]c4ccccc34)CC2)cc1` stands 192 to 194 °C; under `Cn1cc(S(C)=O)c(=O)c2ccc(F)cc21` (centres undefined), 226 to 228 °C.
`CC1CN(c2cccc(C(F)(F)F)c2)N=C1NC(=O)C(F)(F)F` (centres undefined): the melting point is 121 to 122 °C.
In the case of `CCOCn1c(C(F)(F)F)c(C#N)c2ccc(Cl)c(Cl)c21`, the melting point was 122 to 127 °C.
`CCOC(=O)CCn1c(-c2ccccc2)c(-c2ccccc2)n(-c2ccccc2)c1=O` registered a melting point of 111 to 112 °C.
Molecule `Cc1nc(-c2ccccc2)[nH]c(=O)c1C` registered a melting point of 205 to 207 °C.
For the molecule `CC(=O)n1nc(C)c(Oc2cc(Cl)cc(Cl)c2)c1C`, the melting point was less than 60 °C.
`CON(C(=O)c1cn(C)nc1C(F)(F)F)C(CF)Cc1c(Cl)cc(Cl)cc1Cl` (centres undefined) gave a melting point of 131 to 133 °C.
Molecule `CCN(CC)c1ccc(C(=O)c2ccccc2)c(O)c1` gave a melting point of 46 to 48 °C.
On to `COC(=O)c1cc(I)ccc1OC`, for which the melting point fell in the range of 48 to 50 °C.
Under `COc1ccc(-c2cc3ccccc3o2)cc1` stands 145 to 147 °C; under `CC1(CN2CCN(C(=O)Cc3ccc(Cl)c(Cl)c3)CC2)Cn2cc([N+](=O)[O-])nc2O1` (centres undefined), 189 to 191 °C; under `CN(CCN(C)C1=C(O)C(=O)c2ccccc2C1=O)Cc1ccccc1`, 121 to 123 °C.
Under `N#Cc1c(-c2ccccc2)c(-c2ccccc2)n[nH]c1=O` stands 280 to 281 °C; under `Cc1cc(OCc2cnc(-c3ccc(OC(F)(F)F)cc3)nc2C(F)(F)F)ccc1OC(C)(C)C(=O)O`, 154 °C; under `CC(C)(C)C(=O)Nc1nc(O)c2cc(CCc3ccc(C(=O)O)cc3)cnc2n1`, more than 300 °C.
`COc1ccc(C(CC(=O)Nc2cc(C(N)=O)ccc2C(C)(C)C)CC(C)C)c(OC)c1` (centres undefined) had a melting point of 194 to 196 °C.
The result for `O=C(c1ccccc1Nc1ccncc1)N1CCCCC1` reads 153 to 156 °C; that for `Nc1cccc(Oc2ccc(C(=O)c3cccc(N)c3)cc2)c1`, 48 to 52 °C.
The result for `COC(=O)c1ccccc1NC(=O)Cc1ccccc1C` reads 80 to 82 °C.
`Cc1ccc(-n2c(-c3ccc(CC(=O)O)cc3)ccc2-c2ccc(CC(=O)O)cc2)cc1` returned a melting point of 193 to 195 °C.
The result for `N[C@@H]1CCCN([C@@H]2Cc3ccccc3[C@H]2Oc2cc3c(cc2Cl)NC(=O)CC3)C1` reads 184 °C; that for `Cc1c(-c2ccccc2)c2cc(Cl)ccc2n1CC(N)=O`, 223 to 224 °C.
Under `CN(C)CCCNc1c(-c2ccccc2)c(=O)[nH]c2cc(Cl)ccc12` stands 177 to 179 °C.
Under `CCOC(=O)c1ccc(NC(=O)Nc2nnc(-c3cc(Cl)cc(Cl)c3O)s2)cc1` stands more than 300 °C; under `CC(=O)OC1CC2C(=O)CC3C(CCC4(C)C(C(C)C=CC(C)C(C)C)CCC34)C2(C)CC1OC(C)=O` (centres undefined), 196 to 197 °C.
`Nc1ccc(C#Cc2nc(F)c(F)c(F)c2F)c(C#Cc2nc(F)c(F)c(F)c2F)c1`: the melting point lay within 164 to 165 °C.
Under `CCNC(=O)n1nc(Oc2c(Cl)cc(C(F)(F)F)cc2Cl)cc1C(=O)OC` stands 88 to 90 °C; under `CCC(C)c1c(O)ccc2c1oc1ccc(C#N)cc12` (centres undefined), 206 to 207 °C.
The molecule `COc1ccc(Cn2[nH]c(N)cc2=O)cc1` registered a melting point of 161 °C.
The result for `COC(=O)C1N=C(c2ccccc2F)c2cc(Cl)ccc2-n2c1cnc2C` (centres undefined) reads 203 to 205 °C; that for `COc1cc2c(Nc3ccc(Sc4nccn4C)c(Cl)c3)c(C#N)cnc2cc1N1CCN(CCn2ccnc2)CC1`, 251 to 253 °C.
Under `CC1(C)CC(SCc2c(F)cccc2F)=NO1` stands 77 to 80 °C; under `CC(C)(C)c1cc(-c2n[nH]c(=O)[nH]2)cc(C(C)(C)C)c1O`, 276 to 280 °C.
Under `CC(C)c1nc2cc(COc3ccc(CCCn4ccnc4)cc3)ccc2o1` stands 76 to 77 °C.
In the case of `COc1cc(Cl)c(C(=O)c2ccc([N+](=O)[O-])cc2)c(Cl)c1`, the melting point lay in the range of 147 to 150 °C.
`Nc1cccc(-c2ccc(CCN3CCN(C4CCc5ccccc5C4)CC3)cc2)n1` (centres undefined) registered a melting point of more than 220 °C.
Under `Cc1oc(-c2ccco2)nc1COc1ccc(COc2nn(C)cc2CC(=O)O)cn1` stands 155 to 156 °C; under `O=C(c1ccc(-c2cnc3c(c2)N(Cc2cc(F)ccc2F)CCN3)cc1)N1CCC(N2CCCC2)CC1`, 202 to 204 °C.
The result for `CCOC(=O)CCCCC=Cc1cccc(Oc2cccc(C=O)c2)c1` reads 142 to 145 °C; that for `O=C(NO)c1ccc(OC(=O)C2(c3ccccc3)CCCCC2)cc1`, 142 to 144 °C; that for `CCCc1cc(-c2noc3cc(O)ccc23)ccc1O`, 227 to 229 °C.
The result for `CCC(=O)NC[C@@H]1C[C@H]1c1cccn2nc(C)cc12` (relative stereo) reads 95 to 98 °C; that for `O=C(O)[C@H](Cc1ccccc1)NS(=O)(=O)c1ccc(N2CCC(c3ccccc3)CC2)cc1`, 167 to 169 °C.
Turning to `CC(C)(C)COC(=O)c1cc(Cl)c(F)c(Cl)c1`, the melting point is 96 to 98 °C.
`COc1ccc(-c2ncnc(C(F)(F)F)c2Cl)cc1` had a melting point of 104 to 106 °C.
Under `COC(=O)ONC(=N)Nc1ccc(C(=O)OC(C)(C)C)cc1` stands 122 to 126 °C.
